The text below walks through data of article PMC4190524, “The Flux of Select NSAIDs through Silicone Membranes from Mineral Oil” (Pharmaceutics, 2014).

Series [1] can be described thus: Calculated solubilities in octanol, pH 7.4 buffer and acidic water. It counts as physicochemical. Particulars: data from Wenkers and Lippold 1999; for log SOCT: solubility in octanol, calculated from log KOCT:MO and log SMO; for log S7.4: solubility in pH 7.4 phosphate buffer, calculated from log SOCT − log KOCT:7.4; for log S1.0: solubility in acidic water (pH 1.0), calculated from log SMO − log KMO:1.0. The method, then:
Experimental solubility in mineral oil from Wenkers and Lippold was converted to units of mM from mg/dL. The values of log S7.4 were calculated from log SOCT − log KOCT:7.4, the values of log SOCT were calculated from log KOCT:MO + log SMO, and the values of log S1.0 were calculated from log SMO − log KMO:1.0.

Series [2] in a line: Maximum flux through silicone membranes from mineral oil (Franz diffusion cells).
A short description of series [3]: Stability in pH 7.1 phosphate buffer (receptor phase). Conditions: measured after 24 h as salicylic acid. The series is classed as physicochemical. The protocol: Molar extinction coefficients for the compounds in pH 7.1 phosphate buffer, the receptor phase, were determined experimentally. Each compound was initially dissolved in a small volume of acetonitrile (except Diflunisal, which was dissolved in ethanol). These solutions were diluted further with the buffer solution to concentrations that would produce accurate UV absorptions. A plot of absorbance versus concentration produced the slope in units of M^−1. There was only one instance of a major variation in this procedure. […] Thus, the molar extinction coefficient and the concentrations measured after 24 h were that of salicylic acid.

Details of series [4]: method as in Wenkers and Lippold 1999 [6]. Particulars: log maximum flux through human skin in vivo from mineral oil; ref Wenkers and Lippold 1999 [6]; cited from earlier work.
The nature of series [5]: Calculated log partition coefficients. The series is classed as physicochemical. Particulars: data from Wenkers and Lippold 1999; for log KMO:1.0: mineral oil:acidic water (pH 1.0) partition coefficient, calculated from log KOCT:1.0 − log KOCT:MO; for log KOCT:MO: octanol:mineral oil partition coefficient, calculated from log KOCT:1.0 − log KMO:1.0.
The conditions of series [6]: pH 7.1.
Setting [7] is: log maximum flux through silicone membrane from mineral oil suspension, 32 °C, pH 7.1 phosphate buffer receptor phase, measured directly.

Each structure is given as a SMILES string. Like-named read-outs stand apart in the source and are kept apart here.

Take `CC(=O)Oc1ccccc1C(=O)O` [Aspirin]: in series [1], the “log SOCT” value is listed as 3.14 mM and the “log S7.4” value is 5.18 mM. In addition, the “log JMPMO” value in series [2] (setting [7]) is −1.18 µmol cm^−2 h^−1. For the same molecule, the “stability in phosphate buffer” value in series [3] is “readily hydrolyzed to salicylic acid and acetic acid”. Also, in series [4], the “log JMHMO” value was −1.72 µmol cm^−2 h^−1. Besides, in series [5], the “log KMO:1.0” value is listed as −2.02 and the “log KOCT:MO” value is recorded as 3.96.

Turning to `O=C(O)Cc1ccccc1Nc1c(Cl)cccc1Cl` [Diclofenac], in series [1], the “log S1.0” value is −2.43 mM, the “log SOCT” value is given as 1.89 mM and the “log S7.4” value is −0.09 mM. Also, the “log JMPMO” value in series [2] (setting [7]) is listed as −1.91 µmol cm^−2 h^−1. The “log JMHMO” value in series [4] is reported as −2.89 µmol cm^−2 h^−1. For the same molecule, in series [5], the “log KMO:1.0” value was 1.41 and the “log KOCT:MO” value was 2.91.

In the case of `O=C(O)c1cc(-c2ccc(F)cc2F)ccc1O` [Diflunisal], in series [1], the “log S1.0” value is on record as −2.05 mM, the “log SOCT” value is 2.19 mM and the “log S7.4” value is recorded as 1.61 mM. The “log JMPMO” value in series [2] (setting [7]) is recorded as −1.69 µmol cm^−2 h^−1. In series [4], the “log JMHMO” value is listed as −2.44 µmol cm^−2 h^−1. Moreover, in series [5], the “log KMO:1.0” value was 0.88 and the “log KOCT:MO” value is 3.36.

In the case of `O=C(O)c1ccccc1Nc1cccc(C(F)(F)F)c1` [Flufenamic Acid], in series [1], the “log S1.0” value is reported as −2.21 mM, the “log SOCT” value is given as 2.46 mM and the “log S7.4” value is 0.31 mM. The “log JMPMO” value in series [2] (setting [7]) is −0.60 µmol cm^−2 h^−1. The “log JMHMO” value in series [4] is reported as −1.86 µmol cm^−2 h^−1. Moreover, in series [5], the “log KMO:1.0” value is 2.74 and the “log KOCT:MO” value is 1.93.

Take `CC(C)Cc1ccc(C(C)C(=O)O)cc1` (centres unmarked) [Ibuprofen]: in series [1], the “log S1.0” value was −0.97 mM, the “log SOCT” value is given as 3.24 mM and the “log S7.4” value is 2.02 mM. Moreover, the “log JMPMO” value in series [2] (setting [7]) worked out at 0.34 µmol cm^−2 h^−1. The “log JMHMO” value in series [4] is recorded as −0.25 µmol cm^−2 h^−1. For the same molecule, in series [5], the “log KMO:1.0” value is on record as 3.06 and the “log KOCT:MO” value is 1.15.

With `CC(C(=O)O)c1cccc(C(=O)c2ccccc2)c1` (centres unmarked) [Ketoprofen], the “log JMPMO” value in series [2] (setting [7]) is −1.18 µmol cm^−2 h^−1.

On to `COc1ccc2cc(CCC(C)=O)ccc2c1` [Nabumetone], for which, in series [1], the “log S1.0” value is on record as −1.53 mM, the “log SOCT” value is 1.76 mM and the “log S7.4” value is on record as −1.12 mM. Further, the “log JMPMO” value in series [2] (first procedure, 3 h collection intervals) was −1.55. The “log JMPMO” value in series [2] (setting [7]) was −1.53 µmol cm^−2 h^−1. The “log JMPMO” value in series [2] (repeat diffusion cell experiment with 2 h collection intervals, receptor phases ≤20% saturation) was −1.53. In addition, the “log JMHMO” value in series [4] is recorded as −1.10 µmol cm^−2 h^−1. In addition, in series [5], the “log KMO:1.0” value is listed as 2.72 and the “log KOCT:MO” value is 0.57.

Consider `COc1ccc2cc([C@H](C)C(=O)O)ccc2c1` [Naproxen], for which, in series [6], the “log JMPMO” value is listed as −1.46 µmol cm^−2 h^−1.

On to `CN1C(C(=O)Nc2ccccn2)=C(O)c2ccccc2S1(=O)=O` [Piroxicam], for which, in series [1], the “log S1.0” value was −0.94 mM, the “log SOCT” value was 0.75 mM and the “log S7.4” value was 0.95 mM. Also, the “log JMPMO” value in series [2] (setting [7]) is given as −2.08 µmol cm^−2 h^−1. Further, in series [4], the “log JMHMO” value is listed as −2.40 µmol cm^−2 h^−1. For the same molecule, in series [5], the “log KMO:1.0” value is given as 0.20 and the “log KOCT:MO” value is given as 1.49.
